ChEMBL document CHEMBL5252641, “Design, synthesis, and evaluation of benzofuran-based chromenochalcones for antihyperglycemic and antidyslipidemic activities” (RSC Med Chem, 2023)
Active and inactive are the calls of the source. The calls are words filed in the database; no cut-off is given here.

Tests used:
[1] = tested on: Mus musculus; assay: Antidiabetic activity in db/db mouse assessed as decrease in serum insulin levels at 30 mg/kg administered for 15 consecutive days by oral glucose tolerance test relative to control; type: functional; set-up: scale not given: the % may be the effect or the level left; conditions: time 15 day
[2] = tested on: Mus musculus; assay: Antidiabetic activity in db/db mouse assessed as decrease in postprandial blood glucose at 30 mg/kg measured after 9 days; type: functional, organism-based; conditions: time 9.0 day
[3] = tested on: Syrian golden hamster; assay: Antidyslipidemic activity in Triton-induced hyperlipidemic Syrian golden hamster model assessed as increase in lecithin-cholesterol acyltransferase level at 50 mg/kg measured after 18 hrs; type: functional, Mesocricetus auratus
[4] = tested on: Syrian golden hamster; assay: Antidyslipidemic activity in Triton-induced hyperlipidemic Syrian golden hamster model assessed as decrease in total cholesterol level at 50 mg/kg measured after 18 hrs; type: functional, Mesocricetus auratus; set-up: scale not given: the % may be the effect or the level left
[5] = tested on: L6; assay: Induction of GLUT4myc translocation to rat L6 cells surface at 5 to 25 uM incubated for 20 mins followed by insulin stimulation by colorimetric assay; type: functional, cell-based; conditions: dose 5-25 µM
[6] = species: Mus musculus; assay: Antidiabetic activity in db/db mouse assessed as increase in Akt phosphorylation incubated for 15 mins by Western blot analysis; type: functional, organism-based
[7] = tested on: Syrian golden hamster; assay: Antidyslipidemic activity in Triton-induced hyperlipidemic Syrian golden hamster model assessed as decrease in triglyceride level at 50 mg/kg measured after 18 hrs; type: functional, Mesocricetus auratus; set-up: scale not given: the % may be the effect or the level left
[8] = tested on: L6; assay: Induction of glucose uptake in rat L6 cells expressing GLUT4 myc epitopes at 5 uM incubated for 24 hrs by scintillation counting method relative to control; type: functional
[9] = tested on: Mus musculus; assay: Antidiabetic activity in db/db mouse assessed as decrease in rise of postprandial hyperglycemia at 30 mg/kg measured after 10 days post glucose challenge by oral glucose tolerance test relative to control; type: functional; set-up: scale not given: the % may be the effect or the level left; conditions: time 10 day
[10] = tested on: Rattus norvegicus; assay: Antidiabetic activity in streptozotocin induced hyperglycemic Wistar rat model assessed as improvement in blood glucose level at 100 mg/kg,po measured upto 24 hrs relative to control; type: functional
[11] = species: Mus musculus; assay: Antidiabetic activity in db/db mouse assessed as increase in GLUT4 level incubated for 15 mins by Western blot analysis; type: functional, organism-based
[12] = tested on: L6; assay: Induction of glucose uptake in rat L6 cells expressing GLUT4 myc epitopes at 10 uM incubated for 24 hrs by scintillation counting method relative to control; type: functional
[13] = tested on: Syrian golden hamster; assay: Antidyslipidemic activity in Triton-induced hyperlipidemic Syrian golden hamster model assessed as decrease in PL level at 50 mg/kg measured after 18 hrs; type: functional, Mesocricetus auratus; set-up: scale not given: the % may be the effect or the level left
[14] = tested on: L6; assay: Cytotoxicity against rat L6 cells assessed as reduction in cell viability at 5 to 100 uM incubated overnight by MTT assay; type: toxicity, cell-based; conditions: l6, 100 µM, dose 5-100 µM
[15] = tested on: Syrian golden hamster; assay: Antidyslipidemic activity in Triton-induced hyperlipidemic Syrian golden hamster model assessed as increase in post-heparin lipolytic activity at 50 mg/kg measured after 18 hrs; type: functional, Mesocricetus auratus
[16] = tested on: Mus musculus; assay: Antidiabetic activity in db/db mouse assessed as decrease in rise of postprandial hyperglycemia at 30 mg/kg measured after 15 days post glucose challenge by oral glucose tolerance test relative to control; type: functional; set-up: scale not given: the % may be the effect or the level left; conditions: time 15 day
[17] = Antioxidant activity assessed as hydroxyl radical scavenging activity at 100 uM incubated for 90 mins by spectrophotometric analysis; type: functional
[18] = tested on: L6; assay: Induction of GLUT4myc translocation to rat L6 cells surface measured after 16 hrs by colorimetric assay; type: functional, cell-based; conditions: dose 5-25 µM
[19] = tested on: Mus musculus; assay: Antidiabetic activity in db/db mouse assessed as decrease in fasting blood glucose level at 30 mg/kg administered for 15 consecutive days by oral glucose tolerance test relative to control; type: functional; set-up: scale not given: the % may be the effect or the level left; conditions: time 15 day
[20] = Antioxidant activity assessed as superoxide anion radical scavenging activity at 100 uM incubated for 30 mins by spectrophotometric analysis; type: functional
[21] = tested on: Mus musculus; assay: Antidiabetic activity in db/db mouse assessed as decrease in HOMA index at 30 mg/kg administered for 15 consecutive days by oral glucose tolerance test relative to control; type: functional; set-up: scale not given: the % may be the effect or the level left; conditions: time 15 day
[22] = species: Mus musculus; assay: Antidyslipidemic activity in db/db mouse assessed as increase in serum HDL-cholesterol level measured after 15 days relative to control; type: functional; conditions: time 15 day
[23] = species: Mus musculus; assay: Antidyslipidemic activity in db/db mouse assessed as decrease in serum triglyceride level measured after 15 days relative to control; type: functional; set-up: scale not given: the % may be the effect or the level left; conditions: time 15 day
[24] = species: Mus musculus; assay: Antidyslipidemic activity in db/db mouse assessed as effect on body weight measured after 9 days; type: functional, organism-based; conditions: time 9.0 day
[25] = species: Mus musculus; assay: Antidyslipidemic activity in db/db mouse assessed as decrease in serum cholesterol level measured after 15 days relative to control; type: functional; set-up: scale not given: the % may be the effect or the level left; conditions: time 15 day
[26] = tested on: L6; assay: Induction of insulin stimulated glucose uptake in rat L6 cells expressing GLUT4 myc epitopes at 10 uM preincubated for 16 hrs followed by 3 hrs incubation under serum deprived medium prior to insulin stimulation for 20 mins; type: functional, cell-based; conditions: time 1160.0 min
[27] = tested on: Rattus norvegicus; assay: Antidiabetic activity in streptozotocin induced hyperglycemic Wistar rat model assessed as improvement in blood glucose level at 100 mg/kg,po measured upto 5 hrs relative to control; type: functional

With CC1(C)C=Cc2ccc(O)c(C(=O)/C=C/c3ccc4oc(C(=O)c5ccccc5)cc4c3)c2O1 the Activity [1] was 23.8%, the Activity [2] was “Active” and the Activity [3] was 18%. The Activity [4] was 21%, the Activity [5] was “Active” and the Activity [6] was “Active”. The Activity [7] was 18%, the Activity [8] was 82% and the Activity [9] was 18.2%. The Activity [10] was 25.1%, the Activity [11] was “Active” and the Activity [12] was 249%. The Activity [13] was 24%, the Activity [14] was “Non-Toxic” and the Activity [15] was 24%. For the same compound, the Activity [16] was 29.1%, the Activity [17] was 16 and the Activity [18] was “Dose-Dependent Effect”. The Activity [19] was 25%, the Activity [20] was 18 and the Activity [21] was 39.8%. The Activity [22] was 45.2%, the Activity [23] was 26.5% and the Activity [24] was “Active”. For the same compound, the Activity [25] was 21%, the Activity [26] was “inactive” and the Activity [27] was 22.8%.
